Experimental data reported in patent publication US12209072B2, “Cyclopentyl acids as LPA antagonists” (BRISTOL-MYERS SQUIBB COMPANY, priority 2018, dated 2025).
pIC50: −log10 of the molar value.

biological target: T1, human LPA1 (Homo sapiens, UniProt Q92633); test: LPA1 functional antagonist assay (LPA-induced calcium flux); format: cell-based; conditions: CHO cells overexpressing human LPA1; inhibition of calcium flux induced by 10 nM LPA; read-out: hLPA1 IC50
T1 construct: expressed in transfected cells; host or cells: Chinese hamster ovary (CHO) cells
T1 sequence (Q92633 whole entry): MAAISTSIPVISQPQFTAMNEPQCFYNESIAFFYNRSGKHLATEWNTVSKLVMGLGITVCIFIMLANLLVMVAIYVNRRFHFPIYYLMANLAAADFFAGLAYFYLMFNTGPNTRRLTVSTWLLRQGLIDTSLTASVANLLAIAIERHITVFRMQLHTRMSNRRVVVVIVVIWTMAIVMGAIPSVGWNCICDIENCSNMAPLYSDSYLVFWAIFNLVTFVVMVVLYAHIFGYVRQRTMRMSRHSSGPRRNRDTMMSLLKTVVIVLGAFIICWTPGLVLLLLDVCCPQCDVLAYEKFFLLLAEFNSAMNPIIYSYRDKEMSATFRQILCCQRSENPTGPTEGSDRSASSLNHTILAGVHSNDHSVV
Protocol: The effectiveness of compounds of the present invention as LPA1 inhibitors can be determined in an LPA1 functional antagonist assay as follows:
Chinese hamster ovary cells overexpressing human LPA1 were plated overnight (15,000 cells/well) in poly-D-lysine coated 384-well microplates (Greiner bio-one, Cat #781946) in DMEM/F12 medium (Gibco, Cat #11039). Following overnight culture, cells were loaded with calcium indicator dye (AAT Bioquest Inc, Cat #34601) for 30 minutes at 37° C. The cells were then equilibrated to room temperature for 30 minutes before the assay. Test compounds solubilized in DMSO were transferred to 384 well non-binding surface plates (Corning, Cat #3575) using the Labcyte Echo acoustic dispense and diluted with assay buffer [1×HBSS with calcium/magnesium (Gibco Cat #14025-092), 20 mM HEPES (Gibco Cat #15630-080) and 0.1% fatty acid free BSA (Sigma Cat #A9205)] to a final concentration of 0.5% DMSO. Diluted compounds were added to the cells by FDSS6000 (Hamamatsu) at final concentrations ranging from 0.08 nM to 5 μM. and were then incubated for 20 min at room temperature at which time LPA (Avanti Polar Lipids Cat #857130C) was added at final concentrations of 10 nM to stimulate the cells. The compound IC50 value was defined as the concentration of test compound which inhibited 50% of the calcium flux induced by LPA alone. IC50 values were determined by fitting data to a 4-parameter logistic equation (GraphPad Prism, San Diego CA).

Row | Structure (SMILES) | pIC50
1 | Cc1nc(-c2nnn(C)c2COC(=O)N(C)CC(C)C)ccc1O[C@H]1CC[C@H](CC(=O)O)C1 (racemic) [Example 55, (±)-trans-2-[3-({2-methyl-6-[1-methyl-5-({[methyl(2-methylpropyl)carbamoyl]oxy}methyl)-1H-1,2,3-triazol-4-yl]pyridin-3-yl}oxy)cyclo-pentyl]acetic acid] | 6.87
2 | Cc1nc(-c2nnn(C)c2COC(=O)N(C)CCCCF)ccc1O[C@H]1CC[C@H](CC(=O)O)C1 (racemic) [Example 64, (±)-trans-2-[3-({6-[5-({[(4-fluoro-butyl)(methyl)carbamoyl]oxy}methyl)-1-methyl-1H-1,2,3-triazol-4-yl]-2-methylpyridin-3-yl}oxy)cyclo-pentyl]acetic acid] | 6.78
3 | Cc1nc(-c2nnn(C)c2COC(=O)N(C)CCCF)ccc1O[C@H]1CC[C@H](CC(=O)O)C1 (racemic) [Example 65, (±)-trans-2-[3-({6-[5-({[(3-fluoro-propyl)(methyl)carbamoyl]oxy}methyl)-1-methyl-1H-1,2,3-triazol-4-yl]-2-methylpyridin-3-yl}oxy)cyclo-pentyl]acetic acid] | 6.03
4 | CCCCN(C)C(=O)OCc1c(-c2nc(C)c(O[C@H]3CC[C@H](CC(=O)O)C3)cc2F)nnn1C (racemic) [Example 68, (±)-trans-2-[3-({6-[5-({[butyl(methyl)carbamoyl]oxy}methyl)-1-methyl-1H-1,2,3-triazol-4-yl]-5-fluoro-2-methyl-pyridin-3-yl}oxy)cyclopentyl]acetic acid] | 6.83
5 | Cc1nc(-c2nnn(C)c2COC(=O)N(C)C2CCCC2)c(F)cc1O[C@H]1CC[C@H](CC(=O)O)C1 (racemic) [Example 69, (±)-trans-2-[3-({6-[5-({[cyclopentyl(methyl)carbamoyl]oxy}methyl)-1-methyl-1H-1,2,3-triazol-4-yl]-5-fluoro-2-methylpyridin-3-yl}oxy)cyclopentyl]acetic acid] | 6.68
6 | Cc1nc(-c2nnn(C)c2COC(=O)N(C)CC2CCC2)c(F)cc1O[C@H]1CC[C@H](CC(=O)O)C1 (racemic) [Example 70, (±)-trans-2-[3-({6-[5-({[(cyclobutyl-methyl)(methyl)carbamoyl]oxy}methyl)-1-methyl-1H-1,2,3-triazol-4-yl]-5-fluoro-2-methyl-pyridin-3-yl}oxy)cyclopentyl]acetic acid] | 6.66
7 | Cc1noc(-c2ccc(O[C@H]3CC[C@@H](C(=O)O)C3)cc2)c1COC(=O)N(C)C1CCCC1 (racemic) [Example 71, (±)-cis-3-{4-[4-({[cyclopentyl(methyl)carbamoyl]oxy}methyl)-3-methyl-1,2-oxazol-5-yl]phenoxy}cyclopentane-1-carboxylic acid] | 6.69
8 | Cc1noc(-c2ccc(O[C@H]3CC[C@H](C(=O)O)C3)cc2)c1COC(=O)N(C)CCC(C)C (racemic) [Example 72, (±)-trans-3-{4-[3-methyl-4-({[methyl(3-methylbutyl)carbamoyl]oxy}methyl)-1,2-oxazol-5-yl]phenoxy}cyclopentane-1-carboxylic acid] | 6.60
9 | Cc1noc(-c2ccc(O[C@H]3CC[C@@H](C(=O)O)C3)cc2)c1COC(=O)N(C)CCC(C)C (racemic) [Example 73, (±)-cis-3-{4-[3-methyl-4-({[methyl(3-methylbutyl)carbamoyl]oxy}methyl)-1,2-oxazol-5-yl]phenoxy}cyclo-pentane-1-carboxylic acid] | 5.93
10 | Cc1nc(-c2nnn(C)c2COC(=O)N(C)CC2CCC2)ccc1O[C@H]1CC[C@@H](C(=O)O)C1 (racemic) [Example 74, (±)-cis-3-({6-[5-({[cyclobutylmethyl)(methyl)carbamoyl]oxy}methyl)-1-methyl-1H-1,2,3-triazol-4-yl]-2-methylpyridin-3-yl}oxy)cyclopentane-1-carboxylic acid] | 7.00
11 | Cc1nc(-c2nnn(C)c2COC(=O)N(C)CC2CCC2)ccc1O[C@H]1CC[C@H](C(=O)O)C1 (racemic) [Example 75, (±)-trans-3-({6-[5-({[(cyclobutyl-methyl)(methyl)carbamoyl]oxy}methyl)-1-methyl-1H-1,2,3-triazol-4-yl]-2-methylpyridin-3-yl}oxy)cyclo-pentane-1-carboxylic acid] | 7.37
12 | Cc1nc(-c2onc(C)c2COC(=O)N(C)C2CCCC2)ccc1O[C@H]1CC[C@@H](C(=O)O)C1 (racemic) [Example 76, (±)-cis-3-({6-[4-({[cyclopentyl(methyl)carbamoyl]oxy}methyl)-3-methyl-1,2-oxazol-5-yl]-2-methyl-pyridin-3-yl}oxy)cyclopentane-1-carboxylic acid] | 7.40

More lines, now with the values ahead:

Row | pIC50 | Structure (SMILES)
13 | 6.53 | CCCN(C)C(=O)OCc1c(-c2ccc(O[C@H]3CC[C@H](CC(=O)O)C3)c(C)n2)nnn1C (racemic) [Example 54, (±)-trans-2-[3-({2-methyl-6-[1-methyl-5-({[methyl(propyl)carba-moyl]oxy}methyl)-1H-1,2,3-triazol-4-yl]pyridin-3-yl}oxy)cyclopentyl]acetic acid]
14 | 7.05 | Cc1nc(-c2nnn(C)c2COC(=O)N(C)C2CCCC2)ccc1O[C@H]1CC[C@H](CC(=O)O)C1 (racemic) [Example 56, (±)-trans-2-[3-({6-[5-({[cyclopentyl(methyl)carbamoyl]oxy}methyl)-1-methyl-1H-1,2,3-triazol-4-yl]-2-methylpyridin-3-yl}oxy)cyclopentyl]acetic acid]
15 | 6.53 | Cc1nc(-c2nnn(C)c2COC(=O)N(C)C2(C)CC2)ccc1O[C@H]1CC[C@H](CC(=O)O)C1 (racemic) [Example 57, (±)-trans-2-[3-({2-methyl-6-[1-methyl-5-({[methyl(1-methylcyclo-propyl)carbamoyl]oxy}methyl)-1H-1,2,3-triazol-4-yl]pyridin-3-yl}oxy)cyclopentyl]acetic acid]
16 | 6.32 | CCC1(N(C)C(=O)OCc2c(-c3ccc(O[C@H]4CC[C@H](CC(=O)O)C4)c(C)n3)nnn2C)CC1 (racemic) [Example 58, (±)-trans-2-[3-({6-[5-({[(1-ethylcyclo-propyl)(methyl)carbamoyl]oxy}methyl)-1-methyl-1H-1,2,3-triazol-4-yl]-2-methylpyridin-3-yl}oxy)cyclo-pentyl]acetic acid]
17 | 6.56 | Cc1nc(-c2nnn(C)c2CNC(=O)OCC2(C)CC2)ccc1O[C@H]1CC[C@H](CC(=O)O)C1 (racemic) [Example 59, (±)-trans-2-[3-[(2-methyl-6-{1-methyl-5-[({[(1-methylcyclopropyl)methoxy]carbonyl}amino)methyl]-1H-1,2,3-triazol-4-yl}pyridin-3-yl)oxy]cyclo-pentyl]acetic acid]
18 | 6.58 | CCC1(COC(=O)NCc2c(-c3ccc(O[C@H]4CC[C@H](CC(=O)O)C4)c(C)n3)nnn2C)CC1 (racemic) [Example 60, (±)-trans-2-[3-[(6-{5-[({[(1-ethyl-cyclopropyl)methoxy]carbonyl}amino)methyl]-1-methyl-1H-1,2,3-triazol-4-yl}-2-methylpyridin-3-yl)oxy]cyclopentyl]acetic acid]
19 | 6.35 | Cc1nc(-c2nnn(C)c2COC(=O)N2CCC3(CCC3)C2)ccc1O[C@H]1CC[C@H](CC(=O)O)C1 (racemic) [Example 61, (±)-trans-2-[3-({6-[5-({6-azaspiro[3.4]octane-6-carbonyloxy}methyl)-1-methyl-1H-1,2,3-triazol-4-yl]-2-methylpyridin-3-yl}oxy)cyclopentyl]acetic acid]
20 | 6.74 | CCCC1(COC(=O)NCc2c(-c3ccc(O[C@H]4CC[C@H](CC(=O)O)C4)c(C)n3)nnn2C)CCC1 (racemic) [Example 62, (±)-trans-2-[3-[(2-methyl-6-{1-methyl-5-[({[(1-propylcyclobutyl)methoxy]carbonyl}amino)methyl]-1H-1,2,3-triazol-4-yl}pyridin-3-yl)oxy]cyclo-pentyl]acetic acid]
21 | 7.02 | Cc1nc(-c2nnn(C)c2COC(=O)N(C)C2CCC2)ccc1O[C@H]1CC[C@H](CC(=O)O)C1 (racemic) [Example 63, (±)-trans-2-[3-({6-[5-({[cyclobutylmethyl-1H-1,2,3-triazol-4-yl]-2-(methyl)carbamoyl]oxy}methyl)-1-methylpyridin-3-yl}oxy)cyclopentyl]acetic acid]
22 | 6.34 | Cc1nc(-c2nnn(C)c2COC(=O)N2CC3(CCC3)C2)ccc1O[C@H]1CC[C@H](CC(=O)O)C1 (racemic) [Example 66, (±)-trans-2-[3-({6-[5-({2-azaspiro[3.3]heptane-2-carbonyloxy}methyl)-1-methyl-1H-1,2,3-triazol-4-yl]-2-methylpyridin-3-yl}oxy)cyclopentyl]acetic acid]
23 | 6.11 | Cc1nc(-c2nnn(C)c2COC(=O)N2CCC3(CC3)C2)ccc1O[C@H]1CC[C@H](CC(=O)O)C1 (racemic) [Example 67, (±)-trans-2-[3-({6-[5-({5-azaspiro[2.4]heptane-5-carbonyloxy}methyl)-1-methyl-1H-1,2,3-triazol-4-yl]-2-methylpyridin-3-yl}oxy)cyclopentyl]acetic acid]
